Several values for one entry are separate records, joined by “and”; a condition that tells them apart may be missing. Identical values can stand only once.

One assay addresses T1, BPTF/FALZ (Homo sapiens, UniProt Q12830).
T1 construct: purchased BPS Bioscience; Eurofins (HDAC4, 5, 7-11)
Nature of the assay: Epigenetic panel (BPS Bioscience). Type of assay: binding. The text has this: (§1) The selectivity of CM-444 and CM-1758 against other epigenetic targets, including histone demethylase (JMJD2A, JMJD2B, JMJD2C, JMJD2D, JMJD2E, JMJD3, JMJD1A, LSD1, Jarid1A, Jarid1B, Jarid1C, FBXL10, FBXL11, JHDM1D, JMJD1B, PHF8, LSD2 and UTX); histone acetyltransferases (GCN5, P300); histone methyltransferases (G9a, GLP, MLL1, SET7/9, SUV39H1, SUV39H2, PRMT1, PRMT3, PRMT4, PRMT5, PRMT6, PRMT8, PRMT9, NSD1, NSD2, EZH1, EZH2, SETDB1, SETD2, SET8, SUV4-20H1, SMYD2, SMYD3, DOT1L, EZH2 (A677G), EZH2 (A677G), EZH2 (A738T), EZH2 (Y641S), EZH2 (P132S), EZH2 (Y641C), EZH2 (Y641F), EZH2 (Y641H), EZH2 (Y641N)); bromodomains (ATAD2B, ATAD2A, BRD1, BRD9, BPTF/FALZ, CeCR2, BRPF3, BRD3 (BD1 + BD2), BAZ2B, WDR9, TAF1 (BD2), TAF1L (BD2), TAF1L (BD1 + BD2), BRD2 (BD1), BRD2 (BD2), BRD2 (BD1 + BD2), BRD3 (BD1), BRD3 (BD2), BRD4 (BD1), BRD4 (BD2), BRD4 (BD1 + BD2), BRDT (BD1), BRDT (BD1 + BD2), CREBBP, SMARCA2A, SMARCA4/BRG1); DNA methyltranferases (DNMT1, DNMT3A/3L and DNMT3B/3L), and sirtuin histone deacetylases (SIRT1, SIRT2, SIRT3, SIRT5 and SIRT6), were determined by BPS Bioscience (http://www.bpsbioscience.com/index.ph). Binding experiments were performed in duplicate at a concentration of 10 μM.

The target in a further assay is T2, BRD1 (Homo sapiens, UniProt O95696).
T2 construct: purchased BPS Bioscience; Eurofins (HDAC4, 5, 7-11)
Nature of the assay: Epigenetic panel (BPS Bioscience). Type of assay: binding.
Source text: as §1

The target of the next assay is T3, BRD3 (BD1) (Homo sapiens, UniProt Q15059).
T3 construct: BRD3 (BD1); purchased BPS Bioscience (contracted assay service)
Nature of the assay: Epigenetic panel (BPS Bioscience). Type of assay: binding.
Source text: as §1

The target of a further assay is T4, SMARCA2A (Homo sapiens, UniProt P51531).
T4 construct: purchased BPS Bioscience; Eurofins (HDAC4, 5, 7-11)
As to the kind of experiment: Epigenetic panel (BPS Bioscience). It counts as binding.
Source text: as §1

The test system of assay [1] is MOLM-13 i.v. in BALB/cA Rag2-/-γc-/- mice. Nature of the assay: Intravenous xenograft model (survival, CD11b in blood, body weight). The following applies: for CD11b in blood samples: MOLM-13 i.v., 10 mg/kg i.p.; for CD11b (%): blood samples of mice engrafted intravenously with MOLM-13 cells, individual mice. Type of assay: in vivo, mouse.
A further assay concerns the target T5, DOT1L (Homo sapiens, UniProt Q8TEK3).
T5 construct: purchased BPS Bioscience; Eurofins (HDAC4, 5, 7-11)
Nature of the assay: Epigenetic panel (BPS Bioscience). It counts as biochemical.
Source text: as §1

Another assay has as its target T6, EZH2 (Y641S) (Homo sapiens, UniProt Q15910, Y641S).
T6 construct: purchased BPS Bioscience; Eurofins (HDAC4, 5, 7-11)
As to the kind of experiment: Epigenetic panel (BPS Bioscience). It counts as biochemical.
Source text: as §1

In another assay the target is T7, MLL1 (Homo sapiens, UniProt Q03164).
T7 construct: purchased BPS Bioscience; Eurofins (HDAC4, 5, 7-11)
As to the kind of experiment: Epigenetic panel (BPS Bioscience). Type of assay: biochemical.
Source text: as §1

The next assay addresses T8, JMJD1B (Homo sapiens, UniProt Q7LBC6).
T8 construct: purchased BPS Bioscience; Eurofins (HDAC4, 5, 7-11)
Nature of the assay: Epigenetic panel (BPS Bioscience). Type of assay: biochemical.
Source text: as §1

The target of a further assay is T9, EZH2 (Y641H) (Homo sapiens, UniProt Q15910, Y641H).
T9 construct: purchased BPS Bioscience; Eurofins (HDAC4, 5, 7-11)
Nature of the assay: Epigenetic panel (BPS Bioscience). Type of assay: biochemical.
Source text: as §1

In another assay the target is T10, PRMT5 (Homo sapiens, UniProt O14744).
T10 construct: purchased BPS Bioscience; Eurofins (HDAC4, 5, 7-11)
Nature of the assay: Epigenetic panel (BPS Bioscience). Type of assay: biochemical.
Source text: as §1

The next assay concerns the target T11, JMJD2E (Homo sapiens, UniProt B2RXH2).
T11 construct: purchased BPS Bioscience; Eurofins (HDAC4, 5, 7-11)
As to the kind of experiment: Epigenetic panel (BPS Bioscience). It counts as biochemical.
Source text: as §1

In another assay the target is T12, SETD2 (Homo sapiens, UniProt Q9BYW2).
T12 construct: purchased BPS Bioscience; Eurofins (HDAC4, 5, 7-11)
Nature of the assay: Epigenetic panel (BPS Bioscience). Type of assay: biochemical.
Source text: as §1

Another assay has as its target T13, PRMT4 (Homo sapiens, UniProt Q86X55).
T13 construct: purchased BPS Bioscience; Eurofins (HDAC4, 5, 7-11)
As to the kind of experiment: Epigenetic panel (BPS Bioscience). Type of assay: biochemical.
Source text: as §1

In a further assay the target is T14, SET8 (Homo sapiens, UniProt Q9NQR1).
T14 construct: purchased BPS Bioscience; Eurofins (HDAC4, 5, 7-11)
Nature of the assay: Epigenetic panel (BPS Bioscience). It counts as biochemical.
Source text: as §1

For another assay, the target named is T15, Jarid1B (Homo sapiens, UniProt Q9UGL1).
T15 construct: purchased BPS Bioscience; Eurofins (HDAC4, 5, 7-11)
Nature of the assay: Epigenetic panel (BPS Bioscience). Type of assay: biochemical.
Source text: as §1

The target of the next assay is T16, EZH2 (Y641N) (Homo sapiens, UniProt Q15910, Y641N).
T16 construct: purchased BPS Bioscience; Eurofins (HDAC4, 5, 7-11)
Nature of the assay: Epigenetic panel (BPS Bioscience). Type of assay: biochemical.
Source text: as §1

The next assay deals with T17, EZH1 (Homo sapiens, UniProt Q92800).
T17 construct: purchased BPS Bioscience; Eurofins (HDAC4, 5, 7-11)
Nature of the assay: Epigenetic panel (BPS Bioscience). It counts as biochemical.
Source text: as §1

For the next assay, the target named is T18, SIRT3 (Homo sapiens, UniProt Q9NTG7).
T18 construct: purchased BPS Bioscience; Eurofins (HDAC4, 5, 7-11)
As to the kind of experiment: Epigenetic panel (BPS Bioscience). It counts as biochemical.
Source text: as §1

T3 sequence (Q15059 34-140 limits assumed): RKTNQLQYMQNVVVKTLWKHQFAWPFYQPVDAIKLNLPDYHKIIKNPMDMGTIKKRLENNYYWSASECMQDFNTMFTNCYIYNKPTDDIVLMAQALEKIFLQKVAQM
T6 sequence (Q15910 whole entry Y641S): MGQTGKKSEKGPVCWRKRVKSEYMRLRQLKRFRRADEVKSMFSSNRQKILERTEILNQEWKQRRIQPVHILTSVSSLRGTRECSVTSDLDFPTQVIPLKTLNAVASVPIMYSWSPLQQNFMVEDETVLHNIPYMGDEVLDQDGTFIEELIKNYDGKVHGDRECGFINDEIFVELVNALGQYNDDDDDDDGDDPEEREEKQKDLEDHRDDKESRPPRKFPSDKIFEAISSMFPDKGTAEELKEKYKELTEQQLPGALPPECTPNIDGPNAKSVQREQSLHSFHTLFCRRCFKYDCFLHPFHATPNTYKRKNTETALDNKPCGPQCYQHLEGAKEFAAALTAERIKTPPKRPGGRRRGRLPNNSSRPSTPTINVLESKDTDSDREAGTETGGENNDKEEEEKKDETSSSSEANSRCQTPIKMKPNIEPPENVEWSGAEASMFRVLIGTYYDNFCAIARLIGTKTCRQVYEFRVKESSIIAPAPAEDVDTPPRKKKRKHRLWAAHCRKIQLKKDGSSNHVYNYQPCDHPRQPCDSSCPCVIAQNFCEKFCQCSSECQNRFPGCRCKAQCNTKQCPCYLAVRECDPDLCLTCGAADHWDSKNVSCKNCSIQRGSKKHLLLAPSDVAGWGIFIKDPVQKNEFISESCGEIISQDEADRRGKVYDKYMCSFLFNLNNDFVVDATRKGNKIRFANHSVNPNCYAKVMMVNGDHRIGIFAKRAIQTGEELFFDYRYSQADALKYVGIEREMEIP
T6 sequence (O75530 whole entry partner): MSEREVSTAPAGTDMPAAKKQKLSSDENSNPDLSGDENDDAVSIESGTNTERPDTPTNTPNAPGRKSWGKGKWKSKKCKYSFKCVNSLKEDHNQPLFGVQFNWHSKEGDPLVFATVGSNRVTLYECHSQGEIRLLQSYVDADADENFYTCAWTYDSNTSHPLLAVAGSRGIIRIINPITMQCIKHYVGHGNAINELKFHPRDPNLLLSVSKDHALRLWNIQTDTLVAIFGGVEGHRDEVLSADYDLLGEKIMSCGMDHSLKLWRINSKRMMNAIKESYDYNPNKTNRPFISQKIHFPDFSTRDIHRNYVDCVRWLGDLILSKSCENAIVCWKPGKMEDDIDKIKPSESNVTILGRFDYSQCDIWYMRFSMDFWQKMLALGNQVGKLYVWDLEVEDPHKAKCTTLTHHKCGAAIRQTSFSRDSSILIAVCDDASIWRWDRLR
T6 sequence (Q15022 whole entry partner): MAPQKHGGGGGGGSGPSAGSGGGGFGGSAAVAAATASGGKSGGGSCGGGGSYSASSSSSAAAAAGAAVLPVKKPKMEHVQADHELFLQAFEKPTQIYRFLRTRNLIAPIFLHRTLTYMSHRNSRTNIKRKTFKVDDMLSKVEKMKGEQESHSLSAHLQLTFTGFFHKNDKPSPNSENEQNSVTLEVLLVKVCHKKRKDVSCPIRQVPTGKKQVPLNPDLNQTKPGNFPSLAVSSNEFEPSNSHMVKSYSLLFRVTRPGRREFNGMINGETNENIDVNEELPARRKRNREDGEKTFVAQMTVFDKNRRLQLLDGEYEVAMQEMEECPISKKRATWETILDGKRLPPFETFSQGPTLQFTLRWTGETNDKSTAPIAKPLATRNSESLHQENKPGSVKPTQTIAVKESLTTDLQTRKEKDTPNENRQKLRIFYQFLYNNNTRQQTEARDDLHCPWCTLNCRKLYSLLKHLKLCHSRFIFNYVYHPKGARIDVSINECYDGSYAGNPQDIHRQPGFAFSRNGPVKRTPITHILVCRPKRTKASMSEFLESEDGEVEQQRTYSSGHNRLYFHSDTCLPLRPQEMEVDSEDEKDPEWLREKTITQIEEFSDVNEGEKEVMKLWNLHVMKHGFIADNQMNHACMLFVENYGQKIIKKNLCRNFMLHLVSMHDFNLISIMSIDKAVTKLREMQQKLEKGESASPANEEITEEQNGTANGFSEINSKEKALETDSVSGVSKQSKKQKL
T6 sequence (Q09028 whole entry partner): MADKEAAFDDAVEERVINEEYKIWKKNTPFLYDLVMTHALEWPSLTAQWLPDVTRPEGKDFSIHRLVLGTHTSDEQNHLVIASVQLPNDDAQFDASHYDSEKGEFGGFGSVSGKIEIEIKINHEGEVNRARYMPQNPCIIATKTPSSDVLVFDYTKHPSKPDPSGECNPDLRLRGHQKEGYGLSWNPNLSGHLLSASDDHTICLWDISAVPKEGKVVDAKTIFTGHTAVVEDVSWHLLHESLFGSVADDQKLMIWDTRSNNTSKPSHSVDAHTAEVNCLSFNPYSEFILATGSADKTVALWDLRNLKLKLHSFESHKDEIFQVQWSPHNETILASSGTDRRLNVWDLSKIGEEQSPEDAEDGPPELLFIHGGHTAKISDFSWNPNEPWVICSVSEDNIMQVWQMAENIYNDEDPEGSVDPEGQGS
T6 sequence (Q6ZN18 whole entry partner): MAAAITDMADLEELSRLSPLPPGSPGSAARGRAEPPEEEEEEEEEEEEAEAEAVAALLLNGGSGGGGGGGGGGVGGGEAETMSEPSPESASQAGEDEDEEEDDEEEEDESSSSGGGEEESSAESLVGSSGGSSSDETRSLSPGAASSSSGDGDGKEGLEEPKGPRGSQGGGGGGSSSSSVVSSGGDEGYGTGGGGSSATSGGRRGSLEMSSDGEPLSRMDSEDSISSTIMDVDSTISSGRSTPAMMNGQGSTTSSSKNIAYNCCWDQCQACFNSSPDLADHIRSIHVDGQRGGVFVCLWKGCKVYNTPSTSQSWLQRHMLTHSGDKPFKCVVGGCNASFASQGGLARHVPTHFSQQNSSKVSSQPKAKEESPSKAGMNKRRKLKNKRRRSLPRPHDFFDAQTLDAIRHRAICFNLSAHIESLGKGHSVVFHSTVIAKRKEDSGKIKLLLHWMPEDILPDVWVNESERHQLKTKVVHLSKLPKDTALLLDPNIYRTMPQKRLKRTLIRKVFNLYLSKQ
T16 sequence (Q15910 whole entry Y641N): as the sequence (Q15910 whole entry Y641S) above, with S641N counted along it
T16 sequence (O75530 whole entry partner): as the sequence (O75530 whole entry partner) above
T16 sequence (Q15022 whole entry partner): as the sequence (Q15022 whole entry partner) above
T16 sequence (Q09028 whole entry partner): as the sequence (Q09028 whole entry partner) above
T16 sequence (Q6ZN18 whole entry partner): as the sequence (Q6ZN18 whole entry partner) above
T4 sequence (P51531 whole entry): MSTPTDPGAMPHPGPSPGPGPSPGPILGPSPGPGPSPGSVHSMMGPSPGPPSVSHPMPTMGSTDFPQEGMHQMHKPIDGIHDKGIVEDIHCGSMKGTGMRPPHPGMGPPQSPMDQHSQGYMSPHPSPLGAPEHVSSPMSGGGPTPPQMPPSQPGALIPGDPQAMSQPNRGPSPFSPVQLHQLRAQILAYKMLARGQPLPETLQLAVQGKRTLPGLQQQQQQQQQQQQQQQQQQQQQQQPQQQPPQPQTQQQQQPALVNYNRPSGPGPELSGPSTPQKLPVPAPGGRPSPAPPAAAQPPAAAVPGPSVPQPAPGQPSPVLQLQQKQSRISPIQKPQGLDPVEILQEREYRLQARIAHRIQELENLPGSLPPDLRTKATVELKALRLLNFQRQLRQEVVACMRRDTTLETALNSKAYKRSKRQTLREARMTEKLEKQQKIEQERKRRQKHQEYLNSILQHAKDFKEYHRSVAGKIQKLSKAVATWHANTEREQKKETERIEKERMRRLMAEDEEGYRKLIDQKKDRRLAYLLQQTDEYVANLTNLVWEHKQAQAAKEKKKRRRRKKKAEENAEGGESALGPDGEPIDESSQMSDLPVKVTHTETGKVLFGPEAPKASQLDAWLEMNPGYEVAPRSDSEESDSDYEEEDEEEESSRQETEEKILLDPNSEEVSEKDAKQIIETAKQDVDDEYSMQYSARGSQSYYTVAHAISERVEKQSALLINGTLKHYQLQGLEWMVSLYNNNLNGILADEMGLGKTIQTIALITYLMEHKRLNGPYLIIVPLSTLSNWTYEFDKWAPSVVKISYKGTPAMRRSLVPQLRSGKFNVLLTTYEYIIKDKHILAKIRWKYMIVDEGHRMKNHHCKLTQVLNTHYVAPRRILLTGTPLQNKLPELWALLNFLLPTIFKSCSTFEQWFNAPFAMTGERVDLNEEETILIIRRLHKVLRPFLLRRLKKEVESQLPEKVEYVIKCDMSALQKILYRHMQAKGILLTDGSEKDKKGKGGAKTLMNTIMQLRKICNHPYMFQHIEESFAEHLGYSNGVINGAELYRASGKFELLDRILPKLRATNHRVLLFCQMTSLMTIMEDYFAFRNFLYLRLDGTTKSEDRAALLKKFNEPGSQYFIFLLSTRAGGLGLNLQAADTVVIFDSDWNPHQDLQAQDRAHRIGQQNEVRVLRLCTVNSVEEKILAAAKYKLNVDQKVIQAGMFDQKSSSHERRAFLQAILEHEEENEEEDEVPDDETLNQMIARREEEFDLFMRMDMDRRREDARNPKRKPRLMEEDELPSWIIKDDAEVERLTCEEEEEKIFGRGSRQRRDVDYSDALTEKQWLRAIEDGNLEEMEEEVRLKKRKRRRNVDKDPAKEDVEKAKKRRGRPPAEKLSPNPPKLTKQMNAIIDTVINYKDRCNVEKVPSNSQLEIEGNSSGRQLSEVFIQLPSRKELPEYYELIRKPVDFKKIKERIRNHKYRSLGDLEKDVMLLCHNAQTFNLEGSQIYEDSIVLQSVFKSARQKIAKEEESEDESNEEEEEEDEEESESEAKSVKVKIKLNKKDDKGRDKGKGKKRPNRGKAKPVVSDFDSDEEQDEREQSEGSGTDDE
T9 sequence (Q15910 whole entry Y641H): as the sequence (Q15910 whole entry Y641S) above, with S641H counted along it
T9 sequence (O75530 whole entry partner): as the sequence (O75530 whole entry partner) above
T9 sequence (Q15022 whole entry partner): as the sequence (Q15022 whole entry partner) above
T9 sequence (Q09028 whole entry partner): as the sequence (Q09028 whole entry partner) above
T9 sequence (Q6ZN18 whole entry partner): as the sequence (Q6ZN18 whole entry partner) above

Consider `COc1cc2nc(-c3cc(C)oc3C)cc(NCC3CCN(c4ncc(C(=O)NO)cn4)CC3)c2cc1OC` [CM-1758, 2-[4-[[[2-(2,5-dimethyl-3-furyl)-6,7-dimethoxy-4-quinolyl]amino]methyl] -1-piperidyl]pyrimidine-5-carbohydroxamic acid], for which the inhibition at 10 µM was 0% at BPTF/FALZ; 3% against BRD1; 60% against BRD3 (BD1); 0% on SMARCA2A; 0% against DOT1L; 24% at EZH2 (Y641S). In addition, the inhibition at 10 µM against MLL1 amounted to 1%; at JMJD1B it was 11%; at EZH2 (Y641H), 0%; on PRMT5, 7%; against JMJD2E it was 1%; at SETD2 it was 11%. Also, the inhibition at 10 µM is 0% at PRMT4; 9% at SET8; 29% at Jarid1B; 0% against EZH2 (Y641N); 0% at EZH1; 9% on SIRT3. Further, at BRD3 (BD1), the IC50 was above 50 µM. Moreover, the “CD11b in blood samples” value in assay [1] was “significant induction of CD11b”. The “CD11b (%)” value in assay [1] is 43.5% and 62.1% and 13.7% and 9.45% and 29.6% and 36.3% and 8.98% and 17.9% and 35.4% and 52.9% and 49.9%.
On to `COc1cc2nc(-c3ccc(C)o3)cc(NCC3CCN(c4ncc(C(=O)NO)cn4)CC3)c2cc1OC` [CM-444, 2-[4-[[[6,7-dimethoxy-2-(5-methyl-2-furyl)-4-quinolyl]amino]methyl]-1-piperidyl]pyrimidine-5-carbohydroxamic acid], for which the inhibition at 10 µM at BPTF/FALZ was found to be 0%; against BRD1 it was 0%; against BRD3 (BD1), 20%; against SMARCA2A it was 0%; against DOT1L it was 0%; against EZH2 (Y641S), 4%. For the same compound, the inhibition at 10 µM amounted to 0% against MLL1; 6% on JMJD1B; 0% on EZH2 (Y641H); 0% on PRMT5; 5% at JMJD2E; 0% against SETD2. Also, the inhibition at 10 µM against PRMT4 is 0%; on SET8, 4%; on Jarid1B, 5%; against EZH2 (Y641N), 2%; on EZH1, 9%; against SIRT3, 0%. Further, in assay [1], the “CD11b in blood samples” value is reported as “significant induction of CD11b”. Besides, in [1], the “CD11b (%)” value was 49.5% and 13.9% and 12.3% and 14% and 28.6% and 15.1% and 19.3% and 15% and 42.6% and 31.9% and 18% and 12.6%.

What is called inhibition is the share of the control response that was lost under treatment. Lower therefore signals a response near the control. By IC50 is commonly meant the concentration that inhibits the measured activity by half.

(Values after publication PMC11219871, “Epigenetic-based differentiation therapy for Acute Myeloid Leukemia” (Nature Communications, 2024).)
